Measurements: ChEMBL document CHEMBL5625248, “Identification of unique indolylcyanoethylenyl sulfonylanilines as novel structural scaffolds of potential antibacterial agents” (Eur J Med Chem, 2023)
≈ marks a conversion by molar mass, not a printed value.

What was measured:
Assay type in all cases: functional
Staphylococcus aureus [1] = assay: Antibacterial activity against methicilin-resistant Staphylococcus aureus N315 assessed as inhibition of bacterial growth incubated for 18 hrs by two fold broth microdilution assay
Enterococcus faecalis = assay: Antibacterial activity against Enterococcus faecalis assessed as inhibition of bacterial growth incubated for 18 hrs by two fold broth microdilution assay
Staphylococcus aureus [2] = assay: Antibacterial activity against Staphylococcus aureus assessed as inhibition of bacterial growth incubated for 18 hrs by two fold broth microdilution assay
Staphylococcus aureus [3] = assay: Antibacterial activity against Staphylococcus aureus ATCC 25923 assessed as inhibition of bacterial growth incubated for 18 hrs by two fold broth microdilution assay
Staphylococcus aureus [4] = assay: Antibacterial activity against Staphylococcus aureus ATCC 29213 assessed as inhibition of bacterial growth incubated for 18 hrs by two fold broth microdilution assay
Klebsiella pneumoniae = assay: Antibacterial activity against Klebsiella pneumoniae assessed as inhibition of bacterial growth incubated for 18 hrs by two fold broth microdilution assay
Escherichia coli [5] = assay: Antibacterial activity against Escherichia coli assessed as inhibition of bacterial growth incubated for 18 hrs by two fold broth microdilution assay
Pseudomonas aeruginosa [6] = assay: Antibacterial activity against Pseudomonas aeruginosa assessed as inhibition of bacterial growth incubated for 18 hrs by two fold broth microdilution assay
Acinetobacter baumannii = assay: Antibacterial activity against Acinetobacter baumannii assessed as inhibition of bacterial growth incubated for 18 hrs by two fold broth microdilution assay
Pseudomonas aeruginosa [7] = assay: Antibacterial activity against Pseudomonas aeruginosa ATCC 27853 assessed as inhibition of bacterial growth incubated for 18 hrs by two fold broth microdilution assay
Escherichia coli [8] = assay: Antibacterial activity against Escherichia coli ATCC 25922 assessed as inhibition of bacterial growth incubated for 18 hrs by two fold broth microdilution assay

SMILES	MIC (Staphylococcus aureus [1]) [µg/mL]	MIC (Enterococcus faecalis) [µg/mL]	MIC (Staphylococcus aureus [2]) [µg/mL]	MIC (Staphylococcus aureus [3]) [µg/mL]	MIC (Staphylococcus aureus [4]) [µg/mL]	MIC (Klebsiella pneumoniae) [µg/mL]	MIC (Escherichia coli [5]) [µg/mL]	MIC (Pseudomonas aeruginosa [6]) [µg/mL]	MIC (Acinetobacter baumannii) [µg/mL]	MIC (Pseudomonas aeruginosa [7]) [µg/mL]	MIC (Escherichia coli [8]) [µg/mL]
CC(C)=CCn1cc(/C=C(\C#N)S(=O)(=O)c2ccc(N)cc2)c2ccccc21	32 (≈ 81.7 µM)	128 (≈ 327 µM)	64 (≈ 163 µM)	16 (≈ 40.9 µM)	128 (≈ 327 µM)	8 (≈ 20.4 µM)	8 (≈ 20.4 µM)	2 (≈ 5.11 µM)	0.5 (≈ 1.28 µM)	8 (≈ 20.4 µM)	8 (≈ 20.4 µM)
CCCCCCn1cc(/C=C(\C#N)S(=O)(=O)c2ccc(N)cc2)c2ccccc21	32 (≈ 78.5 µM)	4 (≈ 9.82 µM)	256 (≈ 628 µM)	2 (≈ 4.91 µM)	4 (≈ 9.82 µM)	128 (≈ 314 µM)	8 (≈ 19.6 µM)	8 (≈ 19.6 µM)	8 (≈ 19.6 µM)	8 (≈ 19.6 µM)	64 (≈ 157 µM)
CCCCCn1cc(/C=C(\C#N)S(=O)(=O)c2ccc(N)cc2)c2ccccc21	256 (≈ 651 µM)	128 (≈ 325 µM)	256 (≈ 651 µM)	128 (≈ 325 µM)	16 (≈ 40.7 µM)	8 (≈ 20.3 µM)	8 (≈ 20.3 µM)	64 (≈ 163 µM)	32 (≈ 81.3 µM)	64 (≈ 163 µM)	16 (≈ 40.7 µM)
N#C/C(=C\c1cn(Cc2ccc(F)cc2F)c2ccccc12)S(=O)(=O)c1ccc(N)cc1	256 (≈ 570 µM)	256 (≈ 570 µM)	32 (≈ 71.2 µM)	64 (≈ 142 µM)	8 (≈ 17.8 µM)	4 (≈ 8.9 µM)	256 (≈ 570 µM)	64 (≈ 142 µM)	16 (≈ 35.6 µM)	64 (≈ 142 µM)	64 (≈ 142 µM)
N#C/C(=C\c1cn(Cc2cccc(Cl)c2)c2ccccc12)S(=O)(=O)c1ccc(N)cc1	128 (≈ 286 µM)	128 (≈ 286 µM)	128 (≈ 286 µM)	64 (≈ 143 µM)	32 (≈ 71.4 µM)	256 (≈ 571 µM)	256 (≈ 571 µM)	64 (≈ 143 µM)	32 (≈ 71.4 µM)	64 (≈ 143 µM)	32 (≈ 71.4 µM)
CC(=O)Nc1ccc(S(=O)(=O)/C(C#N)=C/c2cn(CC(=O)N3CCCC3)c3ccccc23)cc1	256 (≈ 537 µM)	128 (≈ 269 µM)	128 (≈ 269 µM)	128 (≈ 269 µM)	16 (≈ 33.6 µM)	64 (≈ 134 µM)	64 (≈ 134 µM)	64 (≈ 134 µM)	64 (≈ 134 µM)	128 (≈ 269 µM)	128 (≈ 269 µM)
CC(=O)Nc1ccc(S(=O)(=O)/C(C#N)=C/c2cn(CC3CCCCC3)c3ccccc23)cc1	64 (≈ 139 µM)	32 (≈ 69.3 µM)	32 (≈ 69.3 µM)	64 (≈ 139 µM)	64 (≈ 139 µM)	128 (≈ 277 µM)	256 (≈ 555 µM)	64 (≈ 139 µM)	32 (≈ 69.3 µM)	2 (≈ 4.33 µM)	32 (≈ 69.3 µM)
CC(=O)Nc1ccc(S(=O)(=O)/C(C#N)=C/c2cn(CC(=O)N3CCOCC3)c3ccccc23)cc1	16 (≈ 32.5 µM)	64 (≈ 130 µM)	256 (≈ 520 µM)	64 (≈ 130 µM)	2 (≈ 4.06 µM)	128 (≈ 260 µM)	256 (≈ 520 µM)	64 (≈ 130 µM)	128 (≈ 260 µM)	256 (≈ 520 µM)	128 (≈ 260 µM)
CCn1cc(/C=C(\C#N)S(=O)(=O)c2ccc(N)cc2)c2ccccc21	16 (≈ 45.5 µM)	8 (≈ 22.8 µM)	1 (≈ 2.85 µM)	64 (≈ 182 µM)	1 (≈ 2.85 µM)	8 (≈ 22.8 µM)	8 (≈ 22.8 µM)	1 (≈ 2.85 µM)	1 (≈ 2.85 µM)	8 (≈ 22.8 µM)	8 (≈ 22.8 µM)
CC(=O)Nc1ccc(S(=O)(=O)/C(C#N)=C/c2c[nH]c3cccc(Cl)c23)cc1	64 (≈ 160 µM)	32 (≈ 80 µM)	32 (≈ 80 µM)	128 (≈ 320 µM)	32 (≈ 80 µM)	4 (≈ 10 µM)	128 (≈ 320 µM)	64 (≈ 160 µM)	16 (≈ 40 µM)	32 (≈ 80 µM)	16 (≈ 40 µM)
CC(=O)Nc1ccc(S(=O)(=O)/C(C#N)=C/c2cn(Cc3ccc(F)cc3F)c3ccccc23)cc1	64 (≈ 130 µM)	256 (≈ 521 µM)	8 (≈ 16.3 µM)	32 (≈ 65.1 µM)	32 (≈ 65.1 µM)	256 (≈ 521 µM)	128 (≈ 260 µM)	64 (≈ 130 µM)	16 (≈ 32.6 µM)	64 (≈ 130 µM)	32 (≈ 65.1 µM)
CC(=O)Nc1ccc(S(=O)(=O)/C(C#N)=C/c2c[nH]c3cc(Br)ccc23)cc1	64 (≈ 144 µM)	32 (≈ 72 µM)	32 (≈ 72 µM)	128 (≈ 288 µM)	32 (≈ 72 µM)	4 (≈ 9 µM)	128 (≈ 288 µM)	64 (≈ 144 µM)	16 (≈ 36 µM)	16 (≈ 36 µM)	64 (≈ 144 µM)
CCCCn1cc(/C=C(\C#N)S(=O)(=O)c2ccc(NC(C)=O)cc2)c2ccccc21	256 (≈ 607 µM)	4 (≈ 9.49 µM)	2 (≈ 4.74 µM)	1 (≈ 2.37 µM)	8 (≈ 19 µM)	8 (≈ 19 µM)	64 (≈ 152 µM)	4 (≈ 9.49 µM)	1 (≈ 2.37 µM)	8 (≈ 19 µM)	4 (≈ 9.49 µM)
